This passage reports IC50 and Activity results from ChEMBL document CHEMBL4392825, “New SIRT2 inhibitors: Histidine-based bleomycin spin-off” (Bioorg Med Chem, 2019).

For experiment [1], the target named is T1, NAD-dependent protein deacetylase sirtuin-2 (Homo sapiens, UniProt Q8IXJ6).
T1 sequence (Q8IXJ6 whole entry): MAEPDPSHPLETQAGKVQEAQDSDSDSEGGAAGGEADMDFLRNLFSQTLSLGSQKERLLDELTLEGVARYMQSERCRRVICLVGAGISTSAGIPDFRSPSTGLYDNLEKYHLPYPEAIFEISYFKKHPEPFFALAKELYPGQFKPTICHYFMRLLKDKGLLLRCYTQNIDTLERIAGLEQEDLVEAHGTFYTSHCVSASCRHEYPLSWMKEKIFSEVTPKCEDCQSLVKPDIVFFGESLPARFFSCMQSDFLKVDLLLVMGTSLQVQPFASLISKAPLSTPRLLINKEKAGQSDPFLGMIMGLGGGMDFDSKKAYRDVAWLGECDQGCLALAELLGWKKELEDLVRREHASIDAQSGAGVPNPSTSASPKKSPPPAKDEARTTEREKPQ
Kind of experiment: Inhibition of recombinant SIRT2 (unknown origin) using FAM-RHKK(Ac)LM as substrate measured after 60 mins by electrophoretic mobility shift assay. (In general: Mobility shift assays separate free from complexed probe on a gel.)

A further experiment concerns MCF7. Kind of experiment: Cytotoxicity against human MCF7 cells assessed as reduction in cell viability measured after 4 days by MTT assay. The class given is functional, cell-based. The note with it: MCF7, 96 h.
Another experiment relates to K562. Kind of experiment: Cytotoxicity against human K562 cells assessed as reduction in cell viability measured after 1 day by MTT assay. The note with it: K562, 24 h. The class given is functional, cell-based. (Tetrazolium assays rely on reduction of a dye to a coloured formazan, in cell work by metabolically active cells.)
In a further experiment the test system is MT2. Kind of experiment: Cytotoxicity against human MT2 cells assessed as reduction in cell viability measured after 1 day by MTT assay. The class given is cell-based. The note with it: MT2, 24 h.
For experiment [2], the target named is T2, NAD-dependent protein deacetylase sirtuin-1 (Homo sapiens) (UniProt Q96EB6).
T2 sequence (whole entry): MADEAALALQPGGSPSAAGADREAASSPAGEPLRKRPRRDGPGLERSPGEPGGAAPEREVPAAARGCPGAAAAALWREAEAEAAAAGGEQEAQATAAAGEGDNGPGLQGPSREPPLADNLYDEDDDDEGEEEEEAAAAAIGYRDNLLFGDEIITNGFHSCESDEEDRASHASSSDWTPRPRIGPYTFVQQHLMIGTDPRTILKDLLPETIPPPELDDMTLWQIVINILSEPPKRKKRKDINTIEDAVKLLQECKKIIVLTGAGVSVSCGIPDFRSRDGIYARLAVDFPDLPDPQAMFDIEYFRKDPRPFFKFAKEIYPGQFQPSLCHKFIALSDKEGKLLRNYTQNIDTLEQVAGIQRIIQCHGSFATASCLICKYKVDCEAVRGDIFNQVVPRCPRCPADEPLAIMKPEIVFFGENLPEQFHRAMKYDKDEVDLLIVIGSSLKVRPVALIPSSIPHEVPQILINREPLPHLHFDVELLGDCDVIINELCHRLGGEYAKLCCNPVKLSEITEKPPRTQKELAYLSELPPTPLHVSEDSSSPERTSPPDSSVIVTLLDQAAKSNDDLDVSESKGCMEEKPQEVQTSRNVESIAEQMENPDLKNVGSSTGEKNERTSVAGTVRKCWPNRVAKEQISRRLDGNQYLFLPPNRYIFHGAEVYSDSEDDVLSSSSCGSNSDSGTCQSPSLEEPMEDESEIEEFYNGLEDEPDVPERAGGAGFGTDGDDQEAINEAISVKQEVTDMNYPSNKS
The experiment can be described thus: Inhibition of recombinant SIRT1 (unknown origin) assessed as residual activity using RHKK(Ac)-MCA as substrate measured after 60 mins by fluorescence assay relative to control. Further details: concentration or dose not given beside the values.

Experiment [3] has as its target T3, NAD-dependent protein deacetylase sirtuin-3, mitochondrial (Homo sapiens) (UniProt Q9NTG7).
T3 sequence (whole entry): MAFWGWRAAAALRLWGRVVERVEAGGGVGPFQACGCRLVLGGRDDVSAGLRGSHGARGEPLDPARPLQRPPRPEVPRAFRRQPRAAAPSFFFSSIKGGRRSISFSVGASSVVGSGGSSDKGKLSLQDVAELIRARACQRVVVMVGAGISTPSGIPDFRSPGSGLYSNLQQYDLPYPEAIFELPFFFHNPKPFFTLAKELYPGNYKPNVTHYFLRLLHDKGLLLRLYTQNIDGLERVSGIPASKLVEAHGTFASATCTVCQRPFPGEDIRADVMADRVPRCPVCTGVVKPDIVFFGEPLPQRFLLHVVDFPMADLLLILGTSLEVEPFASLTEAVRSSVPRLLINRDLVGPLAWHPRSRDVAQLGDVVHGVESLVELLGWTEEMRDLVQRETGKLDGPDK
Kind of experiment: Inhibition of recombinant SIRT3 (unknown origin) assessed as residual activity using VSTPVK(Ac)-MCA as substrate measured after 60 mins by fluorescence assay relative to control. Further details: concentration or dose not given beside the values.

In experiment [4] the target is T1, NAD-dependent protein deacetylase sirtuin-2. Kind of experiment: Inhibition of recombinant SIRT2 (unknown origin) using RHKK(Ac)-MCA as substrate measured after 60 mins by fluorescence assay.

Usually IC50 stands for the point on the concentration scale where inhibition reaches its midpoint. As for `COC(=O)[C@H](Cc1cn(C(c2ccccc2)(c2ccccc2)c2ccccc2)cn1)NCc1ccc(Br)cn1`, the IC50 in experiment [1] came out at 10.2 µM.
Same read-out and setting: under `COC(=O)[C@H](Cc1cn(C(c2ccccc2)(c2ccccc2)c2ccccc2)cn1)NCc1cnc2ccccc2c1` stands 3.3 µM.
As for `CCN(CC)c1ccnc(CN[C@@H](Cc2cn(C(c3ccccc3)(c3ccccc3)c3ccccc3)cn2)C(=O)OC)c1`, the IC50 in experiment [1] worked out at 1.3 µM; in the experiment with MCF7 it was 0.71 µM; in the experiment with K562 it was 6.27 µM; in the experiment on MT2, 4.36 µM.
With `COC(=O)[C@H](Cc1cn(C(c2ccccc2)(c2ccccc2)c2ccccc2)cn1)NCc1ccc(N(C)C)cc1`, the IC50 amounted to 11.8 µM in experiment [1], 11.9 µM with MCF7, 10.4 µM with K562 and 6.81 µM in the experiment with MT2. In addition, the Activity in experiment [2] stood at 105%; in experiment [3] it was 81.7%.
Consider `COC(=O)[C@H](Cc1cn(C(c2ccccc2)(c2ccccc2)c2ccccc2)cn1)NCc1cccc(Br)n1`, for which the IC50 in experiment [1] came out at 7.5 µM.
In the case of `COC(=O)[C@H](Cc1cn(C(c2ccccc2)(c2ccccc2)c2ccccc2)cn1)NCc1cccc(N(C)C)c1`, the IC50 in experiment [1] is 5.6 µM.
For the compound `COC(=O)[C@H](Cc1cn(C(c2ccccc2)(c2ccccc2)c2ccccc2)cn1)NCc1ccccn1`, the IC50 in experiment [1] amounted to 21.8 µM; in the experiment on MCF7 it was 8.96 µM; in the experiment on K562, 6.36 µM; in the experiment on MT2, 1.75 µM. Also, the Activity in experiment [2] stood at 96.5%; in experiment [3], 67.7%.
As to `COC(=O)[C@H](Cc1cn(C(c2ccccc2)(c2ccccc2)c2ccccc2)cn1)NCc1ccncc1Br`, the IC50 in experiment [1] amounted to 6.7 µM.
As for `COC(=O)[C@H](Cc1cn(C(c2ccccc2)(c2ccccc2)c2ccccc2)cn1)N(Cc1ccccc1)Cc1ccccc1`, the IC50 in experiment [1] is more than 100 µM. The figures for the Activity in experiment [2] and in experiment [3] were 116% and 90.7%, respectively.
As for `COC(=O)[C@H](Cc1cn(C(c2ccccc2)(c2ccccc2)c2ccccc2)cn1)NC(=O)c1ccccn1`, the IC50 in experiment [1] amounted to 20.4 µM.
For `COC(=O)[C@H](Cc1c[nH]cn1)NCc1cc(N(C)C)cc(CN[C@@H](Cc2cn(C(c3ccccc3)(c3ccccc3)c3ccccc3)cn2)C(=O)OC)n1`, the IC50 in experiment [4] is 5.5 µM; in the experiment on MCF7, 2.29 µM; in the experiment with K562 it was 6.51 µM; in the experiment with MT2, 8.61 µM.
Consider `COC(=O)[C@H](Cc1cn(C(c2ccccc2)(c2ccccc2)c2ccccc2)cn1)NCc1ccccc1`, for which, in experiment [1], the IC50 is 16.4 µM.
Consider `COC(=O)[C@H](Cc1cn(C(c2ccccc2)(c2ccccc2)c2ccccc2)cn1)NCc1ccc2ccccc2n1`, for which the IC50 in experiment [1] is 2.5 µM.
For `COC(=O)[C@H](Cc1cn(C(c2ccccc2)(c2ccccc2)c2ccccc2)cn1)NCc1cc(N(C)C)cc(CN[C@@H](Cc2cn(C(c3ccccc3)(c3ccccc3)c3ccccc3)cn2)C(=O)OC)n1`, the IC50 is 8.8 µM in experiment [4], 1.72 µM in the experiment with MCF7, 7.91 µM in the experiment on K562 and 8.86 µM with MT2.
As to `COC(=O)[C@H](Cc1cn(C(c2ccccc2)(c2ccccc2)c2ccccc2)cn1)NCc1ccc(Br)nc1`, the IC50 in experiment [1] worked out at 5.9 µM; in the experiment with MCF7, 9.87 µM; in the experiment on K562, 5.35 µM; with MT2, 1.37 µM. Further, the Activity in experiment [2] came to 102%; in experiment [3], 71.9%.
Take `Cc1cc(C)nc(SCC(=O)Nc2ncc(Cc3cccc4ccccc34)s2)n1`: the IC50 in the experiment on MCF7 is 13.7 µM; with K562, more than 100 µM; in the experiment on MT2, more than 100 µM.
With `COC(=O)[C@@H](N)Cc1cn(C(c2ccccc2)(c2ccccc2)c2ccccc2)cn1`, the 50% inhibitory concentration (IC50) in experiment [1] turned out to be 43 µM; in the experiment on MCF7 it was 49.1 µM; with K562, 7.2 µM; with MT2 it was 3.13 µM. Moreover, the Activity in experiment [2] was 95.9%; in experiment [3], 76.2%.
Turning to `COC(=O)[C@H](Cc1cn(C(c2ccccc2)(c2ccccc2)c2ccccc2)cn1)NCc1cc(N(C)C)ccn1`, the IC50 in experiment [4] came out at 1.7 µM; in experiment [1] it was 1.7 µM; in the experiment on MCF7 it was 0.77 µM; in the experiment on K562 it was 7.53 µM; with MT2, 3.53 µM.
